Reference: ChEMBL document CHEMBL1201862, “PubChem BioAssay data set” (2004)
Active and inactive are the calls of the source.

How the values were obtained:
[1] = viability loss of HMLE_sh_eGFP cells – cell-based, luminescence, counter-screen for HMLE_sh_ECad selective toxicity project, dose response (AID 463074); type: functional, Homo sapiens;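 note: HMLE human mammary epithelial cells expressing control shRNA against eGFP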
[2] = Luminescence Cell-Based Dose Retest to Confirm Inhibitors of Cancer Stem Cells. [Related pubchem assays (depositor defined):AID2717, AID2721]; type: functional; conditions: Homo sapiens
BJ [3] = assay: BJ-TERT-LT-ST fibroblast viability loss – cell-based, RAS-independent, luminescence, dose response (AID 1935); type: functional; conditions: Homo sapiens;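 note: BJ fibroblasts immortalized with TERT plus LT and ST oncogenes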
[4] = decrease of insulin promoter-GFP reporter – imaging, high-content screening, mouse beta cells (AID 1628); type: functional; conditions: MIN6
BJ [5] = assay: BJ-TERT fibroblast viability loss – cell-based, RAS-independent, luminescence, dose response (AID 1933); type: functional; conditions: Homo sapiens
[6] = THP-1 cell cytotoxicity, dose response, cytotoxicity control for non-replicating M. tuberculosis project (AID 489025); type: functional
[7] = DRD fibroblast viability loss – cell-based, non-viral oncogenic, luminescence, dose response (AID 1934); type: functional; conditions: Homo sapiens
[8] = Vero E6 cell cytotoxicity, dose response, cytotoxicity control for non-replicating M. tuberculosis project, secondary assay (AID 492998); type: functional, VeroE6; conditions: Vero C1008
[9] = luciferase reporter signal suppression in cells – H4 neuroglioma cells, luminescence, dose response (AID 1990); type: functional, cell-based
[10] = MIN6 cell viability loss – mouse insulinoma, cytotoxicity control, dose response (AID 2122); type: functional;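 note: confirmatory high-throughput counterscreen run to flag cytotoxic compounds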
[11] = HEK-293T viability loss after treatment – luminescence, T-cell screen hits, cytotoxicity control for TCR NF-kB inhibitor project, dose response (AID 489026); type: functional, cell-based;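 note: cells exposed to compound about 14 hours before the viability readout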
[12] = Luminescence Cell-Based Dose Response HTS to Identify Inhibitors of 5'UTR Stem-Loop Driven Prion Protein mRNA Translation in H4 Neuroglioblastoma Cells. [Related pubchem assays: 1827 (Project Summary), 1813 (Primary HTS)]; type: functional
BJ [13] = assay: cells; type: functional, cell-based; conditions: Homo sapiens
[14] = alpha-synuclein stem-loop luciferase translation blockers – H4 neuroglioma cells, luminescence, confirmation (AID 1988); type: functional, cell-based
cells = type: functional
[15] = HepG2 cell cytotoxicity, dose response, cytotoxicity control for non-replicating M. tuberculosis project (AID 489018); type: functional; conditions: Mycobacterium tuberculosis
Hexokinase HKDC1 = molecular target: T1, Hexokinase HKDC1 (Homo sapiens, UniProt Q2TB90); assay: analog inhibition of human HKDC1 activity – biochemical, set 2, SAR follow-up (AID 588355); type: functional
T1 sequence (Q2TB90 whole entry): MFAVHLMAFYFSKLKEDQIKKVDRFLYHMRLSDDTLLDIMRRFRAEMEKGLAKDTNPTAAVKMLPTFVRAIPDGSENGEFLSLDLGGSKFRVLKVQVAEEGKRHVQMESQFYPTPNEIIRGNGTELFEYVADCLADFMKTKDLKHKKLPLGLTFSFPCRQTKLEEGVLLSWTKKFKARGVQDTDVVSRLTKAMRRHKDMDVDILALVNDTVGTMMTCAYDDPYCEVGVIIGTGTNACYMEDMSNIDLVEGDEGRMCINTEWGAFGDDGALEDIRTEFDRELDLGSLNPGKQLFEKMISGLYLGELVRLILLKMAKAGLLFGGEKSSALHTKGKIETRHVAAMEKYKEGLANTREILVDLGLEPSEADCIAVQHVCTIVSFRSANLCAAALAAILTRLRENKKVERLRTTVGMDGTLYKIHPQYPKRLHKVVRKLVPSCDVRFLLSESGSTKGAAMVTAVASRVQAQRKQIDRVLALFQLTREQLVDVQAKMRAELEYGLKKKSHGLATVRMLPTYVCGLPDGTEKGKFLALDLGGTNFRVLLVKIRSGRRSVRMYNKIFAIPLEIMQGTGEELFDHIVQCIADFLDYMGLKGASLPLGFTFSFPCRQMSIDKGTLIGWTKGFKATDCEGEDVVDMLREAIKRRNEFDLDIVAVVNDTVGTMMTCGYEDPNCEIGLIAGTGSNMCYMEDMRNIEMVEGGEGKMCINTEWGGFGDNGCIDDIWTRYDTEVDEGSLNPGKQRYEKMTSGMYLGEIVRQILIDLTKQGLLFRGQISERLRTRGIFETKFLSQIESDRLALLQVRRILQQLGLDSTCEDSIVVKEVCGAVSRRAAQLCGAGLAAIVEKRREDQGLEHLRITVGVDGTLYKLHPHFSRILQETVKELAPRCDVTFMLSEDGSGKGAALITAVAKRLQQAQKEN

Hexokinase-1 = molecular target: T2, Hexokinase-1 (Homo sapiens, UniProt P19367); assay: hexokinase 1 activity inhibitors, potency – biochemical, set 2, resazurin fluorescence coupled readout, selectivity assay for HKDC1 inhibitor project, SAR follow-up (AID 588356); type: functional
T2 sequence (P19367 whole entry): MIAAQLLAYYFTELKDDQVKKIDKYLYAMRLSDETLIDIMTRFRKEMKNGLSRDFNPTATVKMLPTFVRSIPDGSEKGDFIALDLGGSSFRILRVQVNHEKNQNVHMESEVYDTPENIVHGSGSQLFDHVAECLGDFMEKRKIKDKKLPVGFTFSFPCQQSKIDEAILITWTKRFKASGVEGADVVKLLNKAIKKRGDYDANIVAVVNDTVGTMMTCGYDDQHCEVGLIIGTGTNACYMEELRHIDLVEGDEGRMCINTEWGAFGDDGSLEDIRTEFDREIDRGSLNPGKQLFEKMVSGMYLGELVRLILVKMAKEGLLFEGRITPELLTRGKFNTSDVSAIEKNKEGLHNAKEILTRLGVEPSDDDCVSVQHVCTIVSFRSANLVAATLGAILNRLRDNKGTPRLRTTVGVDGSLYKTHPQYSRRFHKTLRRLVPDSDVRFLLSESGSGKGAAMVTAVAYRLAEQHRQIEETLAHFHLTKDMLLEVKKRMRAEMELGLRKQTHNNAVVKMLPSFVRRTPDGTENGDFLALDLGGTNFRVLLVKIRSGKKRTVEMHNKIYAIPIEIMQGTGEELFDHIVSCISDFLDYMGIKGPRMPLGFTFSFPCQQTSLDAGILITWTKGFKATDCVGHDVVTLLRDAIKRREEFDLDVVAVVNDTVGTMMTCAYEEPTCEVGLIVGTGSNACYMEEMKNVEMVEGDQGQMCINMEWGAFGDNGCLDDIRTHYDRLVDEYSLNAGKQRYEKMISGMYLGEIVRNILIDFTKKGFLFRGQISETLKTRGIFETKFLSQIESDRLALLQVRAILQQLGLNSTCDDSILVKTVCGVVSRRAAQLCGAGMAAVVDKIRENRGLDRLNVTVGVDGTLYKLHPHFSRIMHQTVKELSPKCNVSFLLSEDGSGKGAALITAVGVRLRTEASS

Cytochrome P450 2D6 = Cytochrome P450 2D6 (Homo sapiens, UniProt P10635);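 note: CYP2D6 member of a cytochrome P450 panel assay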
Sequence of Cytochrome P450 2D6 (P10635 whole entry): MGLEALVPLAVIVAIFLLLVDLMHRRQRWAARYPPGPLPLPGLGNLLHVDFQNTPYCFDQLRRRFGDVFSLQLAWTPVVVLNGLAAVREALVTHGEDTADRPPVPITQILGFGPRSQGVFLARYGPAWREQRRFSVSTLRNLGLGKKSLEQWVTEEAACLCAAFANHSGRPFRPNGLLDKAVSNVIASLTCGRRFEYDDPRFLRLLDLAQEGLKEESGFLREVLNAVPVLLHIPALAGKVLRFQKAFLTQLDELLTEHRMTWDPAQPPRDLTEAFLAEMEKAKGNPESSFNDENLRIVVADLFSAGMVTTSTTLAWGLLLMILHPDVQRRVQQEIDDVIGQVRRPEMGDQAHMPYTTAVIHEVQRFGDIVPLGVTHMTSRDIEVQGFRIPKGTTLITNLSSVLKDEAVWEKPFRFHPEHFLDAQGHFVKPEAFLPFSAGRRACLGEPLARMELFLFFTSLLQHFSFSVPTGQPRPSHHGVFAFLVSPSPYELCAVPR

Protein RecA = molecular target: T3, Protein RecA (Mycobacterium tuberculosis, UniProt P9WHJ3); assay: Fluorescence Cell-Free Homogeneous Dose Retest to Identify Inhibitors of RecA-Intein Splicing Activity. [Related pubchem assays (depositor defined):AID2097, AID2223, AID489010, AID492950]; type: functional
T3 sequence (P9WHJ3 whole entry): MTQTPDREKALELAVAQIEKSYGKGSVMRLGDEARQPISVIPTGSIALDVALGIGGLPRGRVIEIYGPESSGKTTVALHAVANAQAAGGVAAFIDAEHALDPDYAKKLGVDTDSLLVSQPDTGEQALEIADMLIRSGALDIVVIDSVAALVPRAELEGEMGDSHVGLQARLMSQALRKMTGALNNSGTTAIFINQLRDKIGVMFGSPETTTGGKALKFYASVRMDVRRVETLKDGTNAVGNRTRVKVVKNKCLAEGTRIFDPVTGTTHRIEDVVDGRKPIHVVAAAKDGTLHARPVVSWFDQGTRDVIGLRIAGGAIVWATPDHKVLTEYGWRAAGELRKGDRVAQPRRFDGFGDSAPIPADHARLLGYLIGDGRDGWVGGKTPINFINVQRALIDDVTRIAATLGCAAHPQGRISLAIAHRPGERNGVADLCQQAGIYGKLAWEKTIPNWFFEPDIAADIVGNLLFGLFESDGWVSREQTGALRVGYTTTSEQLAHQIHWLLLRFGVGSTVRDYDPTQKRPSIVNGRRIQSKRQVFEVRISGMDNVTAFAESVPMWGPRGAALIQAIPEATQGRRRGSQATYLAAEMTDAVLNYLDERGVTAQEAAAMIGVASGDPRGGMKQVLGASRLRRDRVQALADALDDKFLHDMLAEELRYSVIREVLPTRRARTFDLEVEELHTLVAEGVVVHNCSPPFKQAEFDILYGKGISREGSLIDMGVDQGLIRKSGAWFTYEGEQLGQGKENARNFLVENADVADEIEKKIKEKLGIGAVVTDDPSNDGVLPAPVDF

[16] = molecular target: T4, Replicative DNA helicase DnaB (Mycobacterium tuberculosis, UniProt P9WMR3); assay: DnaB intein splicing inhibitors, dose response, biochemical, cell-free fluorescence (AID 449749); type: functional
T4 sequence (P9WMR3 whole entry): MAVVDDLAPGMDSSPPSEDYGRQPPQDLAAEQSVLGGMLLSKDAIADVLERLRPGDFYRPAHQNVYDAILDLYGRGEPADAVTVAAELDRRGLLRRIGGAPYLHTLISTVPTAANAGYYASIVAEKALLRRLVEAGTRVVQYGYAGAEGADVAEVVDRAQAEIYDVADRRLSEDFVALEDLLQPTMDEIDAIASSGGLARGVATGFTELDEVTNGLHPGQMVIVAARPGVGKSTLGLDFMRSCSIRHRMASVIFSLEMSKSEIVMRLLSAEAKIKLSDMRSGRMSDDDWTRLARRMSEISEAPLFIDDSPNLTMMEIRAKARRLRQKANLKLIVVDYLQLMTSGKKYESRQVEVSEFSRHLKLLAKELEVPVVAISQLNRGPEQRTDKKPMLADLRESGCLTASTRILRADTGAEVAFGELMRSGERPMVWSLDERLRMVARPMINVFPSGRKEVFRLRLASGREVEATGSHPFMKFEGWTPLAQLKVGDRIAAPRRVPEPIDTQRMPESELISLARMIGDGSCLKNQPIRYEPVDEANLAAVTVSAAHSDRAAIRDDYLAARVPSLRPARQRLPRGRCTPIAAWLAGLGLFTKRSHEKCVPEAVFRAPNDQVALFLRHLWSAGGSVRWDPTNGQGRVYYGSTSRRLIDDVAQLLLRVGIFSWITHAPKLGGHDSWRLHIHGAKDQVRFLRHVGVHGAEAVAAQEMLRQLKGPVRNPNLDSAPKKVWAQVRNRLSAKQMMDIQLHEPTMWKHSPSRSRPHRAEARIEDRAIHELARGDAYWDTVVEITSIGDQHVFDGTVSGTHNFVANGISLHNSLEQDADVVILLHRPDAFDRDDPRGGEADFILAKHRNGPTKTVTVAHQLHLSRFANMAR

O=C(NC(=S)Nc1ccc2oc(=O)ccc2c1)c1ccc(-c2cccc(Cl)c2Cl)o1
AC50 [1]: 39.2 µM (active) | AC50 [2]: 2.77 µM (active)

COc1ccc(Nc2cc(C)nc(-n3nc(C)cc3C)n2)cc1
EC50 (BJ [3]): 0.388 µM (inconclusive) | IC50 [4]: 2.54 µM (active) | EC50 (BJ [5]): 0.625 µM (active) | CC50 [6]: 0.201 µM (active) | EC50 [7]: 0.4 µM (active) | CC50 [8]: 1.41 µM (active) | EC50 [9]: 0.266 µM (active) | IC50 [10]: < 0.25 µM (active) | IC50 [11]: > 80 µM (inactive) | EC50 [12]: 0.142 µM (active) | EC50 (BJ [13]): 0.973 µM (active) | EC50 [14]: < 0.195 µM (active) | IC50 (cells): 0.38 µM (active) | CC50 [15]: > 20 µM (active)

COc1cc2c(cc1OC)-c1cc(NCc3ccccc3F)nc(=O)n1CC2
IC50 (Hexokinase HKDC1): > 80 µM (inactive) | IC50 (Hexokinase-1): > 80 µM (inactive)

CCO/C(O)=C1/C(C)=NC2(O)c3ccccc3C(=O)C12O (stereo unspecified)
AC50 (Cytochrome P450 2D6): inconclusive | EC50 (Protein RecA): 18.1 µM (active) | AC50 [16]: 24 µM (active)
